Test results: patent US6946446B2, “Anti-infective agents useful against multidrug-resistant strains of bacteria” (Abbott Laboratories, priority 2000, dated 2005)
In brackets after ≈: the same amount, converted by molar mass.

Columns and labels:
S. aureus A-5278 = assay: In vitro antibacterial activity, agar dilution MIC; assay type: cell-based, Staphylococcus aureus; conditions: BHI agar dilution, 35-37° C., 20 to 24 hours
Experimental: (§1) Representative compounds of the present invention were assayed in vitro for antibacterial activity as follows: Petri dishes containing successive aqueous dilutions of the test compound mixed with 10 mL of sterilized Brain Heart Infusion (BHI) agar (Difco 0418-01-5) were prepared. Each plate was inoculated with 1:100 dilutions of a different microorganism, using a Steers replicator block. The inoculated plates were incubated at 35-37° C. for 20 to 24 hours. In addition, a control plate, using BHI agar containing no test compound, was prepared and incubated at the beginning and end of each test.
(§2) An additional plate containing a compound having known susceptibility patterns for the organisms being tested and belonging to the same antibiotic class as the test compound was also prepared and incubated as a further control, as well as to provide test-to-test comparability. Erythromycin A was used for this purpose.
(§3) After incubation, each plate was visually inspected. The minimum inhibitory concentration (MIC) was defined as the lowest concentration of drug yielding no growth, a slight haze, or sparsely isolated colonies on the inoculum spot as compared to the growth control.

[1] = test system: Resistant Staphylococcus aureus 1775; assay: In vitro antibacterial activity, agar dilution MIC; assay type: cell-based; conditions: BHI agar dilution, 35-37° C., 20 to 24 hours
Experimental: as §1, §2, §3

| SMILES | MIC (S. aureus A-5278; Staphylococcus aureus, A5278) [µg/mL] | MIC ([1]; Staphylococcus aureus, read-out: MIC S. aureus 1775) [µg/mL] | MIC S. aureus A-5278 (S. aureus A-5278) [µg/mL] | MIC S. aureus 1775 [1] [µg/mL] |
| --- | --- | --- | --- | --- |
| COc1cccc(OC)c1C(=O)N[C@@H]1C(=O)N2[C@@H]1SC(C)(C)[C@@H]2C(=O)O [Methicillin, reference compound] | > 100 | > 100 |  |  |
| CCC1OC(=O)C(C)C(OC2CC(C)(OC)C(O)C(C)O2)C(C)C(OC2OC(C)CC(N(C)C)C2O)C(C)(OCc2cccc(I)c2)CC(C)C(=NO)C(C)C(O)C1(C)O (stereo not shown) [Ex. 12, 6-O-[(3-Iodo)benzyl]-9-oxime Erythromycin A] |  |  | 25 (≈ 25.9 µM) | 25 (≈ 25.9 µM) |
| CCC1OC(=O)C(C)C(OC2CC(C)(OC)C(O)C(C)O2)C(C)C(OC2OC(C)CC(N(C)C)C2O)C(C)(OCc2ccc(-c3ccccc3)cc2)CC(C)C(=NO)C(C)C(O)C1(C)O (stereo not shown) [Ex. 13, 6-O-[(4-Phenyl)benzyl]-9-oxime Erythromycin A] |  |  | 50 (≈ 54.6 µM) | 25 (≈ 27.3 µM) |
| CC[C@H]1OC(=O)[C@H](C)[C@@H](O[C@H]2C[C@@](C)(OC)[C@@H](O)[C@H](C)O2)[C@H](C)[C@@H](O[C@@H]2O[C@H](C)C[C@H](N(C)C)[C@H]2O)[C@](C)(O)C[C@@H](C)C(=O)[C@H](C)[C@@H](O)[C@]1(C)O [Erythromycin, Erythromycin A, reference compound] |  |  | >100 | >100 |
| CCON=C1C(C)CC(C)(OCC=Cc2cnc3ccccc3c2)C(OC2OC(C)CC(N(C)C)C2O)C(C)C(=O)C(C)C(=O)OC(CC)C(C)(O)C(O)C1C (stereo not shown) [Ex. 1, 6-O-[3-(3-quinolyl)-2-propen-1-yl]-3-descladinose-3-oxo-9-[(O-ethyl)oxime] Erythromycin A] |  |  | 25 (≈ 31.9 µM) | 12.5 (≈ 15.9 µM) |
